Several values for one entry are separate records, joined by “and”; a condition that tells them apart may be missing. Identical values can stand only once.
Tests used:
[1] = test system: Neocallimastix isolates LM1 and TGB1; Piromyces isolates SM1, CS15 and TZB2; test: In vitro growth of selected fungal isolates at different doses of MPA; assay type: cell-based; conditions: MPA 0-1.6 mM, media with 0.5% CHO, FIGS. 2a and 2b
Description: Five isolates were recovered in standard media from cryopreservation and one isolate was obtained from the culture collection. Table 2 below indicates nature of isolates.
Each isolate was transferred from standard media to a modification of the low sulphur media described in Example 1. Carbohydrates (glucose+cellobiose) were added to give either 0.2% (in subculture phase ) or 0.5% (in test phase)
. Triplicate tubes of the three concentrations were inoculated with each isolate and after 3-4 days subcultured using the tubes with the best apparent growth. […] This was to be the final assessment however as some growth was obtained in the 0 controls so all tubes were subcultured again into the same type of media. After a weeks incubation growth was determined by the decrease in media pH as described in Example 1.

Cellutolytic Bacteria = test: Effect of infusion on cellulolytic bacteria in rumen fluid (most probable number); assay type: in vivo; design: Cellutolytic Bacteria, MPA: unit not given here; conditions: individual sheep and Aver. n = 13; for Cellutolytic Bacteria, MPA: MPA infused at 192 mg Sulphur/sheep/day; for Cellutolytic Bacteria, log (+): versus control period
Description: (§1) Feed was prepared as previously described (see example 4). Initially 22 sheep were fed 1 kg of alkali straw/day in the animal house for 4 days to select out sheep not eating the diet. 19 sheep were weighted and transferred to metabolism cages and feed the alkali straw diet ad-lib. Sheep were fed and on the following day the feed refusal weighted and if less then 100 g remained a further 100 g was fed; if 100-200g of feed remained the sheep was given the same amount of feed; if over 200 g of feed was left the sheep was given 100 g less feed. Over the following week another 6 sheep were moved out of the experiment (usually due to very low or erratic intakes). […] After 14 days infusion the collection period of 7 days commenced. At the end of the collection period samples of rumen digesta were taken for microbiology and other analyses. Rumen fluid was collected and fungal zoospores and total bacteria assessed as described in example 4 (the total bacteria were assessed on the same medium but without antibiotics). Cellulolytic bacteria were assessed by a most probable number count. Rumen fluid was serially diluted and subsamples of each dilution inoculated into 5 culture tubes containing an anaerobic medium containing rumen fluid and strips of filter paper. After incubation the presence of cellulolytic bacteria was detected by degradation of the paper and the numbers of positive tubes compared to tables to give a number of these bacteria in the original sample. Following the last sampling the infusion was stopped in the first group of sheep and on the following day the infusion treatment was begun in the other group of seven sheep. The second period (the crossover) was conducted in the same way as the first period with the same samples being taken at the same times.

Fungal Zoospores = test: Effect of infusion on fungal zoospores in rumen fluid; assay type: in vivo, sheep; conditions: for Fungal Zoospores, MPA: MPA infused at 192 mg Sulphur/sheep/day; for Fungal Zoospores, MPA / Fungal Zoospores, log (+): log10 increase after infusion of MPA: individual sheep and Aver. n = 13; for Fungal Zoospores, log (+): log10 increase after infusion of MPA: versus control period
Description: as §1, with “times. The number of zoospores in samples of strained ruminal fluid can be used to follow zoosporogenesis in the rumen and it provides a relative estimate of the size of the anaerobic fungal population. (1) Strain a sample of ruminal digesta through an open weave cloth, and collect the filtered fluid in a CO2-filled flask. (2) Serially dilute the fluid ten-fold in anaerobic dilution solution (ADS) to a final dilution of 10^−3. To do this, transfer 1 ml volumes using 1 ml disposable sterile syringes fitted with sterile 23 gauge (0.65 mm) needles to tubes containing 9 ml ADS, starting with fluid to form the 10^−1 dilution. Use a clean syringe at each dilution step. (3) Using a 1 ml syringe (and 23 ga. needle, as before) inoculate three roll tubes each with 0.2 ml of 10^−3 dilution. Immediately roll these tubes horizontally on ice until the agar sets. With the same syringe, inoculate three more roll tubes with 0.2 ml of 10^−2 dilution and roll them. Repeat with 10^−1 dilution and finally with undiluted fluid, if appropriate. (4) Incubate the roll tubes vertically at 39° C. for 5 d.” for “times.”

Total Bacteria = test: Effect of infusion on total bacteria in rumen fluid; assay type: in vivo; design: Total Bacteria, MPA: unit not given here; conditions: individual sheep and Aver. n = 13; for Total Bacteria, MPA: MPA infused at 192 mg Sulphur/sheep/day; for Total Bacteria, log (+): versus control period
Description: as §1

## O=C(O)CCS [MPA, 3-mercaptopropanoic acid]
[1]
  growth response of sheep versus non-sheep isolates: no clear difference between the sheep and non-sheep isolates
Cellutolytic Bacteria
  Cellutolytic Bacteria, MPA: 6.96 × 10^8 and 0.556 × 10^8 and 4.42 × 10^8 and 1.84 × 10^8 and 2.173 × 10^8 and 3.447 × 10^8 and 1.086 × 10^8 and 0.912 × 10^8 and 3.219 × 10^8 (3×) and 18.37 × 10^8 and 3.22 × 10^8
  Cellutolytic Bacteria, log (+): 0.58 log and −0.52 log and 0.38 log and −0.24 log (2×) and 0.07 log and 0.50 log and 0.12 log and 1.76 log and 0.76 log and 1.00 log and 0.62 log and 0.47 log
Cellutolytic Bacteria; mean
  Cellutolytic Bacteria, MPA: 4.05 × 10^8
  Cellutolytic Bacteria, log (+): 0.40 log
Fungal Zoospores; 192 mg Sulphur/day/sheep, with the exception of one animal
  response in numbers of rumen fungi to infusion: strong, positive, response
Fungal Zoospores
  Fungal Zoospores, MPA: 2567 per ml rumen fluid and 7083 per ml rumen fluid and 3050 per ml rumen fluid and 7283 per ml rumen fluid and 1783 per ml rumen fluid and 7250 per ml rumen fluid and 6167 per ml rumen fluid and 4417 per ml rumen fluid and 9017 per ml rumen fluid and 6467 per ml rumen fluid and 11167 per ml rumen fluid and 5383 per ml rumen fluid and 4900 per ml rumen fluid
  Fungal Zoospores, log (+): log10 increase after infusion of MPA: 2.7 log10 and 2.5 log10 and 2.0 log10 and 2.3 log10 and 0.4 log10 and 0.5 log10 and 0.7 log10 and 0.8 log10 and 0.2 log10 and 0.6 log10 and 1.0 log10 (2×) and 1.1 log10
Fungal Zoospores; mean
  Fungal Zoospores, MPA: 5887 per ml rumen fluid
  Fungal Zoospores, log (+): log10 increase after infusion of MPA: 1.20 log10
Total Bacteria
  Total Bacteria, MPA: 10.50 × 10^8 (2×) and 8.07 × 10^8 and 6.83 × 10^8 and 7.50 × 10^8 and 10.00 × 10^8 and 7.17 × 10^8 and 5.87 × 10^8 and 12.00 × 10^8 and 14.50 × 10^8 and 10.83 × 10^8 and 10.67 × 10^8 and 6.33 × 10^8
  Total Bacteria, log (+): 0.27 log and 0.31 log (2×) and −0.34 log (2×) and −0.17 log and 0.02 log and 0.05 log and 0.25 log (2×) and 0.29 log and 0.33 log and 0.10 log
Total Bacteria; mean
  Total Bacteria, MPA: 9.29 × 10^8
  Total Bacteria, log (+): 0.10 log

Source: patent US6458580B1, “Fungal sulphur source and method of using the same” (Commonwealth Scientific and Industrial Research Organisation, priority 1997, dated 2002)
